Among the data in patent EP0667868B1, “CEPHEM COMPOUNDS” (FUJISAWA PHARMACEUTICAL CO., LTD., priority 1993, dated 1995) are MIC and dose excreted values, retold here.

The subject of one data set is S. aureus. Briefly: Minimal inhibitory concentration, two-fold agar-plate dilution method. It counts as cell-based. The conditions noted are these: Staphylococcus aureus, HI-agar, 37°C for 20 hours. As to the method: (§1) In vitro antibacterial activity was determined by the two-fold agar-plate dilution method as described below.
(§2) One loopful of an overnight culture of each test strain in Trypticase-soy broth (10^8 viable cells per ml) was streaked on heart infusion agar (HI-agar)containing graded concentrations of representative test compound, and the minimal inhibitory concentration (MIC) was expressed in terms of µg/ml after incubation at 37°C for 20 hours.

A further data set deals with E. coli. The description is as above. The class given is cell-based. The conditions noted are these: Escherichia coli, HI-agar, 37°C for 20 hours. As to the method:
as §1, §2

The next data set concerns H. influenzae. The description is as above. The class given is cell-based. Particulars: Haemophilus influenzae, HI-agar, 37°C for 20 hours. On the procedure:
as §1, §2

Data set [1] can be described thus: Urinary excretion after oral administration (disc-plate diffusion bioassay). The class given is in vivo, Male JCL SD strain rats. Particulars: rat; rats, 20 mg /kg oral, suspended in 0.5% methyl cellulose; urine 0 to 6 and 6 to 24 hours; Bacillus subtilis ATCC 6633 as test organism; read-out: Urinary recovery in 24 hours. On the procedure: Male JCL SD strain rats (age, 6-7 weeks) were used. Test compound was suspended in 0.5% methyl cellulose solution. The rats were starved overnight before dosing with 20 mg /kg. Urine samples were collected at 0 to 6 and 6 to 24 hours after oral administration were measured by the disc-plate diffusion method using Bacillus subtilis ATCC 6633 as test organism and sodium citrate agar (0.8% sodium citrate, 0.5% polypeptone, 0.3% beef extract and 1.0% agar) as the test medium. The plate were incubated at 37°C for 18 hours and the zone of inhibition were measured.

SMILES strings stand for the structures. Values after ≈ are worked out from the molar mass of the structure shown.

With `Nc1nc(/C(=N/O)C(=O)N[C@@H]2C(=O)N3C(C(=O)O)=C(SCc4ccncc4)CS[C@H]23)cs1` [Comparative (1), 7β-[2-(2-Aminothiazol-4-yl)-2-(Z)-(hydroxyimino)-acetamido]-3-[(4-pyridyl)methylthio]-3-cephem-4-carboxylic acid], the MIC came to 0.143 µg/mL (≈ 0.29 µM) against S. aureus, 0.061 µg/mL (≈ 0.124 µM) against E. coli and 0.067 µg/mL (≈ 0.136 µM) with H. influenzae.
On to `Nc1nc(/C(=N/O)C(=O)N[C@@H]2C(=O)N3C(C(=O)O)=C(SCc4cn[nH]c4)CS[C@H]23)cs1` [(3), 7β-[2-(2-Aminothiazol-4-yl)-2-(Z)-(hydroxyimino)-acetamido]-3-[(pyrazol-4-yl)methylthio]-3-cephem-4-carboxylic acid], for which the dose excreted at 24 h in data set [1] was found to be 50%. Further, the MIC is 0.23 µg/mL (≈ 0.478 µM) in the data set with S. aureus, 0.033 µg/mL (≈ 0.0685 µM) in the data set on E. coli and 0.129 µg/mL (≈ 0.268 µM) in the data set with H. influenzae.
With `Cc1nnsc1CSC1=C(C(=O)O)N2C(=O)[C@@H](NC(=O)/C(=N\O)c3csc(N)n3)[C@H]2SC1` [Comparative (2), 7β-[2-(2-Aminothiazol-4-yl)-2-(Z)-(hydroxyimino)-acetamido]-3-[(4-methyl-1,2,3-thiadiazol-5-yl)methylthio]-3-cephem-4-carboxylic acid], the MIC with S. aureus worked out at 0.167 µg/mL (≈ 0.325 µM); in the data set with E. coli, 0.072 µg/mL (≈ 0.14 µM); against H. influenzae, 0.118 µg/mL (≈ 0.23 µM).
